Experimental findings from ChEMBL document CHEMBL3832053, “DailyMed|setid=94de983f-549b-42ed-9f40-b022aa3bef0f | TRANDOLAPRIL- trandolapril tablet|Carilion Materials Management” are described below.

The test system of this data set is Homo sapiens. Nature of the data set: Pharmacokinetic parameters for Trandolapril or its active metabolite of Trandolaprilat, after oral or intravenous (IV) administration of Trandolapril. Particulars: in vivo; for Total CL: iv.

Where “and” joins values, the source holds several entries; their conditions need not be identical. Identical values can stand only once.

In the case of `CCOC(=O)[C@H](CCc1ccccc1)N[C@@H](C)C(=O)N1[C@H](C(=O)O)C[C@H]2CCCC[C@@H]21` [TRANDOLAPRIL], the “Total CL” value is 52 L/h. For the same compound, for the setting “po”, the CL renal is 1 to 4 L/h and the t1/2 was 6 h.
For the compound `C[C@H](N[C@@H](CCc1ccccc1)C(=O)O)C(=O)N1[C@H](C(=O)O)C[C@H]2CCCC[C@@H]21` [TRANDOLAPRILAT], the “Total CL” value amounted to 7 L/h. Also, under “po”, the Excretion was 66% and 33%; the F worked out at 70%; the Protein binding is 94% and 65%; the t1/2 ss amounted to 22.5 h.
